Assay results published in patent US20110306580A1 (DONG WHA PHARMACEUTICAL CO ., LTD., priority 2009, published 2011).

Test system: ROS17/2.8 cells
Assay: Cell growth of ROS17/2.8 cells by the MTT method (formed formazan)
Format: cell-based, rat
Settings: for activity at 0.02 µM: Rattus norvegicus, 2×10^−5M Test Compound solution diluted 1000 fold, read-out: Amount of formed formazan, Solution 8 (Test Compound alone); for activity at 0.02 µM / Amount of formed formazan, Solution 10 (a group of a drug combination): percentage to Solution 7 addition group, about 48 hours, average ± standard deviation of four wells; for Relative index of Solution 10 (a group of a drug combination) / Amount of formed formazan, Solution 10 (a group of a drug combination): Test Compound in combination with 1α,25-dihydroxyvitamin D3; for Relative index of Solution 10 (a group of a drug combination) / Relative index of Solution 8 (Test Compound alone): amount of formed formazan, Solution 7 = 1.00
Description: 100 μL of a 10% FCS-αMEM comprising either DMSO and ethanol (referred to as Solution 7, hereinafter), a Test Compound solution and ethanol (referred to as Solution 8, hereinafter), a 1α,25-dihydroxyvitamin D3 solution and DMSO (referred to as Solution 9, hereinafter) or a Test Compound solution and the 1α,25-dihydroxyvitamin D3 solution (referred to as Solution 10, hereinafter) was dispensed. The ROS17/2.8 cells were inoculated to a medium at a density of 5×10^3 cells/100 μL/well. After culture of the cells for about 48 hours, the effect of Test Compound and 1α,25-dihydroxyvitamin D3 on the cell growth of the ROS17/2.8 cells was evaluated using the MTT method. Namely, after culture of the cells for about 44 hours, an MTT solution (3-[4,5-dimethylthiazol-2-yl]-2,5-diphenyltetrazolium bromide 2 mg/mL) was added in an amount of 25 μL/well, and the cells were further cultured for four hours. After the medium was removed, DMSO was added in an amount of 100 μL/well so as to dissolve the formed formazan. The amount of the formed formazan was determined by measuring the absorbance (at 560 nm) of the solution by a microplate reader.
The 10% FCS-αMEM comprising Solution 7 was prepared by diluting DMSO by 1000 fold with the 10% FCS-αMEM, and diluting ethanol by 10000 fold with the 10% FCS-αMEM. The 10% FCS-αMEM comprising Solution 8 was prepared by diluting a 2×10^−5M Test Compound solution by 1000 fold with the 10% FCS-αMEM, and diluting ethanol by 10000 fold with the 10% FCS-αMEM. The 10% FCS-αMEM comprising Solution 9 was prepared by diluting 2×10^−3M 1α,25-dihydroxyvitamin D3 solution by 10000 fold with the 10% FCS-αMEM, and diluting DMSO by 1000 fold with the 10% FCS-αMEM. The 10% FCS-αMEM comprising Solution 10 was prepared by diluting a 2×10^−5M Test Compound solution by 1000 fold with the 10% FCS-αMEM, and diluting 2×10^−3M 1α,25-dihydroxyvitamin D3 solution by 10000 fold with the 10% FCS-αMEM.
The amount of the formed formazan in each solution addition group was obtained in terms of a percentage to the average value of the amounts of formed formazan in four wells in a Solution 7 addition group. All the determined values were shown in terms of the average value±standard deviation of the four wells of each solution addition group.

Structure (SMILES) | activity at 0.02 µM [%] | Relative index of Solution 10 (a group of a drug combination) | Amount of formed formazan, Solution 10 (a group of a drug combination) | Relative index of Solution 8 (Test Compound alone)
Cc1nc(-c2ccc(OCCCCCOc3ccc(/C(N)=N/O)cc3)cc2)c(N(C)C)s1 [Compound 35, N-hydroxy-4-{5-[4-(5-dimethylamino-2-methyl-1,3-thiazol-4-yl)phenoxy]pentoxy}benzamidine] | 101 ± 2.3 | 1.12 | 112 ± 3.0 ## % | 1.01
CC(C)c1nc(-c2ccc(OCCCCCOc3ccc(/C(N)=N/O)cc3)cc2)c(CCN2CCSCC2)s1 [Compound 27, N-hydroxy-4-{5-[4-(2-isopropyl-5-(2-(thiomorpholin-4-yl)ethyl)-1,3-thiazol-4-yl)phenoxy]pentoxy}benzamidine] | 98 ± 1.9 | 1.12 | 112 ± 0.9 ## % | 0.98
CCN(C)c1nc(-c2ccc(OCCCCCOc3ccc(/C(N)=N/O)cc3)cc2)c(CN2CCOCC2)s1 [Compound 33, N-hydroxy-4-{5-[4-{2-ethylmethylamino-5-(morpholin-4-ylmethyl)-1,3-thiazol-4-yl)phenoxy]pentoxy}benzamidine] | 106 ± 1.7 | 1.13 | 113 ± 1.9 ## % | 1.06
Cc1nc(-c2ccc(OCc3cccc(COc4ccc(/C(N)=N/O)cc4)c3)cc2)c(C(C)C)s1 [Compound 22, N-hydroxy-4-{3-[4-(5-isopropyl-2-methyl-1,3-thiazol-4-yl)phenoxymethyl]benzyloxy}benzamidine] | 110 ± 4.1 | 1.22 | 122 ± 2.1 ## % | 1.10
CN(C)CCc1sc(C2CCCCC2)nc1-c1ccc(OCCCCCOc2ccc(/C(N)=N/O)cc2)cc1 [Compound 28, N-hydroxy-4-{5-[4-(2-cyclohexyl-5-(2-(dimethylamino)ethyl)-1,3-thiazol-4-yl)phenoxy]pentoxy}benzamidine] | 99 ± 3.5 | 1.11 | 111 ± 2.0 # % | 0.99
CNc1nc(-c2ccc(OCCCCCOc3ccc(/C(N)=N/O)cc3)cc2)c(CC2CCCC2)s1 [Compound 6, N-hydroxy-4-{5-[4-(5-cyclopentylmethyl-2-methylamino-1,3-thiazol-4-yl)phenoxy]pentoxy}benzamidine] | 103 ± 2.5 | 1.13 | 113 ± 1.7 ## % | 1.03
Cc1nc(-c2ccc(OCCCCCOc3ccc(/C(N)=N/O)cc3)cc2)c(CCNC(C)C)s1 [Compound 24, N-hydroxy-4-{5-[4-(5-(2-(isopropylamino)ethyl)-2-methyl-1,3-thiazol-4-yl)phenoxy]pentoxy}benzamidine] | 110 ± 4.4 | 1.18 | 118 ± 2.9 ## % | 1.10
CN(C)c1nc(-c2ccc(OCCCCCOc3ccc(/C(N)=N/O)cc3)cc2)c(CCN2CCOCC2)s1 [Compound 29, N-hydroxy-4-{5-[4-(2-dimethylamino-5-(2-(morpholin-4-yl)ethyl)-1,3-thiazol-4-yl)phenoxy]pentoxy}benzamidine] | 102 ± 5.6 | 1.14 | 114 ± 2.6 ## % | 1.02
CCN(CC)CCc1sc(C)nc1-c1ccc(OCCCCCOc2ccc(/C(N)=N/O)cc2)cc1 [Compound 26, N-hydroxy-4-{5-[4-(5-(2-diethylaminoethyl)-2-methyl-1,3-thiazol-4-yl)phenoxy]pentoxy}benzamidine] | 102 ± 2.6 | 1.13 | 113 ± 2.7 # % | 1.02
CNC(=O)c1sc(N)nc1-c1ccc(OCCCCCOc2ccc(/C(N)=N/O)cc2)cc1 [Compound 31, N-hydroxy-4-{5-[4-(2-amino-5-(N-methylcarbamoyl)-1,3-thiazol-4-yl)phenoxy]pentoxy}benzamidine] | 101 ± 2.9 | 1.10 | 110 ± 0.4 # % | 1.01
Cc1nc(-c2ccc(OCCCCCOc3ccc(/C(N)=N/O)cc3)cc2)c(Cn2ccnc2)s1 [Compound 32, N-hydroxy-4-{5-[4-(5-(imidazol-1-ylmethyl)-2-methyl-1,3-thiazol-4-yl]phenoxy}pentoxy}benzamidine] | 97 ± 3.3 | 1.10 | 110 ± 2.4 # % | 0.97
N/C(=N\O)c1ccc(OCCCCCOc2ccc(-c3nc(-c4cccnc4)sc3Cc3ccccc3)cc2)cc1 [Compound 2, N-hydroxy-4-{5-[4-(5-benzyl-2-(pyridin-3-yl)-1,3-thiazol-4-yl]phenoxy]pentoxy}benzamidine] | 103 ± 3.1 | 1.17 | 117 ± 2.6 # % | 1.03
CN(CCN1CCOCC1)c1nc(-c2ccc(OCCCCCOc3ccc(/C(N)=N/O)cc3)cc2)c(C2CCCC2)s1 [Compound 15, N-hydroxy-4-{5-[4-(5-cyclopentyl-2-(methyl(2-(4-morpholino)ethyl)amino)-1,3-thiazol-4-yl)phenoxy]pentoxy}benzamidine] | 103 ± 3 | 1.15 | 115 ± 0.8 ## % | 1.03
Cc1nc(-c2ccc(OCCCCCOc3ccc(/C(N)=N/O)cc3)cc2)c(CCn2ccnc2)s1 [Compound 23, N-hydroxy-4-{5-[4-(5-(2-(imidazol-1-yl)ethyl)-2-methyl-1,3-thiazol-4-yl)phenoxy]pentoxy}benzamidine] | 107 ± 5.5 | 1.23 | 123 ± 10.2 # % | 1.07
CC(C)c1nc(-c2ccc(OCCCCCOc3ccc(/C(N)=N/O)cc3)cc2)c(CCN(C(=O)c2ccncc2)C2CC2)s1 [Compound 30, N-hydroxy-4-{5-[4-(5-(2-(cyclopropyl(pyridin-4-carbonyl)amino)ethyl}-2-isopropyl-1,3-thiazol-4-yl)phenoxy]pentoxy}benzamidine] | 99 ± 5.3 | 1.13 | 113 ± 1.2 ## % | 0.99
Cc1sc(N(C)CCO)nc1-c1ccc(OCCCCCOc2ccc(/C(N)=N/O)cc2)cc1 [Compound 7] | 109 ± 3.2 | 1.20 | 120 ± 2.3 ## % | 1.09
CC(C)c1sc(N(C)C)nc1-c1ccc(OCCCCCOc2ccc(/C(N)=N/O)cc2)cc1 [Compound 17, N-hydroxy-4-{5-[4-(5-isopropyl-2-dimethylamino-1,3-thiazol-4-yl)phenoxy]pentoxy}benzamidine] | 97 ± 1.3 | 1.13 | 113 ± 1.7 # % | 0.97
CCc1sc(C2CCCCC2)nc1-c1ccc(OCCCCOc2ccc(/C(N)=N/O)cc2)cc1 [Compound 21, N-hydroxy-4-{4-[4-(2-cyclohexyl-5-ethyl-1,3-thiazol-4-yl)phenoxy]butoxy}benzamidine] | 105 ± 2.5 | 1.11 | 111 ± 1.7 # % | 1.05
